Activity calls are given as the source filed them. The rule behind the calls is not given here.
How the values were obtained:
K562 [1] = test: Cell cycle arrest in human K562 cells assessed as accumulation in G0/G1 phase at 20 uM after 24 hrs by flow cytometry analysis; assay type: functional
K562 [2] = test: Cell cycle arrest in human K562 cells assessed as accumulation in S phase at 20 uM after 24 hrs by flow cytometry analysis; assay type: functional
K562 [3] = test: Cell cycle arrest in human K562 cells assessed as accumulation in G2/M phase at 20 uM after 24 hrs by flow cytometry analysis; assay type: functional
K562 [4] = test: Cell cycle arrest in human K562 cells assessed as accumulation in Sub-G1 phase at 20 uM after 24 hrs by flow cytometry analysis; assay type: functional
K562 [5] = test: Cell cycle arrest in human K562 cells assessed as accumulation in G0/G1 phase at 50 uM after 24 hrs by flow cytometry analysis; assay type: functional
K562 [6] = test: Cell cycle arrest in human K562 cells assessed as accumulation in S phase at 50 uM after 24 hrs by flow cytometry analysis; assay type: functional
K562 [7] = test: Cell cycle arrest in human K562 cells assessed as accumulation in G2/M phase at 50 uM after 24 hrs by flow cytometry analysis; assay type: functional
K562 [8] = test: Cell cycle arrest in human K562 cells assessed as accumulation in Sub-G1 phase at 50 uM after 24 hrs by flow cytometry analysis; assay type: functional
K562 [9] = test: Inhibition of G2/M phase related Cyclin A protein expression in human K562 cells at 20 uM by Western blotting analysis; assay type: functional, cell-based
K562 [10] = test: Inhibition of G2/M phase related Cyclin B protein expression in human K562 cells at 20 uM by Western blotting analysis; assay type: functional, cell-based
CCRF-CEM = test: Cytotoxicity against human CCRF-CEM cells; assay type: functional
HL-60 = test: Cytotoxicity against human HL60 cells; assay type: functional
K562 [11] = test: Cytotoxicity against human K562 cells; assay type: functional
MOLT-4 = test: Cytotoxicity against human MOLT4 cells; assay type: functional
[12] = Cytotoxicity against human […] cells; assay type: functional
A549 = test: Cytotoxicity against human A549 cells; assay type: functional
EKVX = test: Cytotoxicity against human EKVX cells; assay type: functional
HOP-62 = test: Cytotoxicity against human HOP62 cells; assay type: functional
NCI-H226 = test: Cytotoxicity against human NCI-H226 cells; assay type: functional
NCI-H23 = test: Cytotoxicity against human NCI-H23 cells; assay type: functional
NCI-H460 = test: Cytotoxicity against human NCI-H460 cells; assay type: functional
NCI-H522 = test: Cytotoxicity against human NCI-H522 cells; assay type: functional
COLO 205 = test: Cytotoxicity against human COLO205 cells; assay type: functional
HCC 2998 = test: Cytotoxicity against human HCC2998 cells; assay type: functional
HCT-116 = test: Cytotoxicity against human HCT116 cells; assay type: functional
HCT-15 = test: Cytotoxicity against human HCT15 cells; assay type: functional
HT-29 = test: Cytotoxicity against human HT-29 cells; assay type: functional
KM12 = test: Cytotoxicity against human KM12 cells; assay type: functional
SW-620 = test: Cytotoxicity against human SW620 cells; assay type: functional
SF-268 = test: Cytotoxicity against human SF268 cells; assay type: functional
SF-295 = test: Cytotoxicity against human SF295 cells; assay type: functional
SF-539 = test: Cytotoxicity against human SF539 cells; assay type: functional
SNB-19 = test: Cytotoxicity against human SNB19 cells; assay type: functional
SNB-75 = test: Cytotoxicity against human SNB75 cells; assay type: functional
U-251 = test: Cytotoxicity against human U251 cells; assay type: functional
LOX IMVI = test: Cytotoxicity against human LOXIMVI cells; assay type: functional
M14 = test: Cytotoxicity against human M14 cells; assay type: functional
SK-MEL-28 = test: Cytotoxicity against human SK-MEL-28 cells; assay type: functional
SK-MEL-5 = test: Cytotoxicity against human SK-MEL-5 cells; assay type: functional
UACC-257 = test: Cytotoxicity against human UACC257 cells; assay type: functional
UACC-62 = test: Cytotoxicity against human UACC62 cells; assay type: functional
OVCAR-3 = test: Cytotoxicity against human OVCAR-3 cells; assay type: functional
OVCAR-4 = test: Cytotoxicity against human OVCAR4 cells; assay type: functional
OVCAR-5 = test: Cytotoxicity against human OVCAR5 cells; assay type: functional
SK-OV-3 = test: Cytotoxicity against human SKOV3 cells; assay type: functional
786-0 = test: Cytotoxicity against human 786-0 cells; assay type: functional
ACHN = test: Cytotoxicity against human ACHN cells; assay type: functional
CAKI-1 = test: Cytotoxicity against human Caki1 cells; assay type: functional
RXF 393 = test: Cytotoxicity against human […] cells; assay type: functional
SN12C = test: Cytotoxicity against human SN12C cells; assay type: functional
UO-31 = test: Cytotoxicity against human UO31 cells; assay type: functional
PC-3 = test: Cytotoxicity against human PC3 cells; assay type: functional
DU-145 = test: Cytotoxicity against human DU145 cells; assay type: functional
MCF7 = test: Cytotoxicity against human MCF7 cells; assay type: functional
NCI/ADR-RES = test: Cytotoxicity against human NCI/ADR-RES cells; assay type: functional
MDA-MB-231 = test: Cytotoxicity against human MDA-MB-231 cells; assay type: functional
[13] = Cytotoxicity against human Hs 578T cells; assay type: functional
MDA-MB-435 = test: Cytotoxicity against human MDA-MB-435 cells; assay type: functional
BT-549 = test: Cytotoxicity against human BT549 cells; assay type: functional
T47D = test: Cytotoxicity against human T47D cells; assay type: functional
K562 [14] = test: Cell cycle arrest in human K562 cells assessed as accumulation in G0/G1 phase at 10 uM after 24 hrs by flow cytometry analysis; assay type: functional
K562 [15] = test: Cell cycle arrest in human K562 cells assessed as accumulation in S phase at 10 uM after 24 hrs by flow cytometry analysis; assay type: functional
K562 [16] = test: Cell cycle arrest in human K562 cells assessed as accumulation in G2/M phase at 10 uM after 24 hrs by flow cytometry analysis; assay type: functional
K562 [17] = test: Cell cycle arrest in human K562 cells assessed as accumulation in Sub-G1 phase at 10 uM after 24 hrs by flow cytometry analysis; assay type: functional
[18] = read-out: LC50 (the source's name)

C(#Cc1ccccc1C#Cc1ccccn1)c1ccc(OCCCCCCOc2ccc(C#Cc3ccccc3C#Cc3ccccn3)cc2)cc1
Activity (K562 [1]): 13.7%
Activity (K562 [2]): 59.7%
Activity (K562 [3]): 26.6%
Activity (K562 [4]): 8.77%
Activity (K562 [5]): 23%
Activity (K562 [6]): 52.1%
Activity (K562 [7]): 24.9%
Activity (K562 [8]): 15.54%
Activity (K562 [9]): Active
Activity (K562 [10]): Active
GI50 (CCRF-CEM): 40 nM
CC50 (CCRF-CEM; [18]): > 50 µM
GI50 (HL-60): 90 nM
CC50 (HL-60; [18]): 2700 nM
GI50 (K562 [11]): 1380 nM
CC50 (K562 [11]; [18]): 22.8 µM
GI50 (MOLT-4): 370 nM
CC50 (MOLT-4; [18]): 28 µM
GI50 [12]: 620 nM
CC50 [12, 18]: > 50 µM
GI50 (A549): 6.41 µM
CC50 (A549; [18]): 43.2 µM
GI50 (EKVX): 4.33 µM
CC50 (EKVX; [18]): 22.9 µM
GI50 (HOP-62): 6.31 µM
CC50 (HOP-62; [18]): 38.8 µM
GI50 (NCI-H226): 6.53 µM
CC50 (NCI-H226; [18]): 30.3 µM
GI50 (NCI-H23): 7.97 µM
CC50 (NCI-H23; [18]): > 50 µM
GI50 (NCI-H460): 1690 nM
CC50 (NCI-H460; [18]): 18.7 µM
GI50 (NCI-H522): 2870 nM
CC50 (NCI-H522; [18]): 38.4 µM
GI50 (COLO 205): 8.18 µM
CC50 (COLO 205; [18]): 30.9 µM
GI50 (HCC 2998): 7.21 µM
CC50 (HCC 2998; [18]): 26.9 µM
GI50 (HCT-116): 8.69 µM
CC50 (HCT-116; [18]): > 50 µM
GI50 (HCT-15): 2780 nM
CC50 (HCT-15; [18]): 22 µM
GI50 (HT-29): 7.89 µM
CC50 (HT-29; [18]): 27 µM
GI50 (KM12): 1380 nM
CC50 (KM12; [18]): 20.8 µM
GI50 (SW-620): 4 µM
CC50 (SW-620; [18]): 22.7 µM
GI50 (SF-268): 3.63 µM
CC50 (SF-268; [18]): 22.7 µM
GI50 (SF-295): 1240 nM
CC50 (SF-295; [18]): 15.8 µM
GI50 (SF-539): 2380 nM
CC50 (SF-539; [18]): 21.3 µM
GI50 (SNB-19): 6 µM
CC50 (SNB-19; [18]): 26.2 µM
GI50 (SNB-75): 5.13 µM
CC50 (SNB-75; [18]): 31.3 µM
GI50 (U-251): 5.63 µM
CC50 (U-251; [18]): 24.1 µM
GI50 (LOX IMVI): 270 nM
CC50 (LOX IMVI; [18]): 18.4 µM
GI50 (M14): 7.47 µM
CC50 (M14; [18]): 41.6 µM
GI50 (SK-MEL-28): 5.73 µM
CC50 (SK-MEL-28; [18]): 24.3 µM
GI50 (SK-MEL-5): 2300 nM
CC50 (SK-MEL-5; [18]): 20.5 µM
GI50 (UACC-257): 7.11 µM
CC50 (UACC-257; [18]): 31.4 µM
GI50 (UACC-62): 470 nM
CC50 (UACC-62; [18]): 16.4 µM
GI50 (OVCAR-3): 2140 nM
CC50 (OVCAR-3; [18]): 21.3 µM
GI50 (OVCAR-4): 1910 nM
CC50 (OVCAR-4; [18]): 23.4 µM
GI50 (OVCAR-5): 3.56 µM
CC50 (OVCAR-5; [18]): 23.4 µM
GI50 (SK-OV-3): 7.05 µM
CC50 (SK-OV-3; [18]): 42 µM
GI50 (786-0): 7.45 µM
CC50 (786-0; [18]): > 50 µM
GI50 (ACHN): 1340 nM
CC50 (ACHN; [18]): 19.6 µM
GI50 (CAKI-1): 5.42 µM
CC50 (CAKI-1; [18]): 23.8 µM
GI50 (RXF 393): 7.65 µM
CC50 (RXF 393; [18]): 27.9 µM
GI50 (SN12C): 6.55 µM
CC50 (SN12C; [18]): 32.7 µM
GI50 (UO-31): 8.51 µM
CC50 (UO-31; [18]): > 50 µM
GI50 (PC-3): 4.46 µM
CC50 (PC-3; [18]): 29.2 µM
GI50 (DU-145): 6.14 µM
CC50 (DU-145; [18]): 24.9 µM
GI50 (MCF7): 1910 nM
CC50 (MCF7; [18]): 21.8 µM
GI50 (NCI/ADR-RES): 2300 nM
CC50 (NCI/ADR-RES; [18]): > 50 µM
GI50 (MDA-MB-231): 2670 nM
CC50 (MDA-MB-231; [18]): 23.5 µM
GI50 [13]: 5.41 µM
CC50 [13, 18]: 34.6 µM
GI50 (MDA-MB-435): 1540 nM
CC50 (MDA-MB-435; [18]): 21.7 µM
GI50 (BT-549): 3.45 µM
CC50 (BT-549; [18]): 22.7 µM
GI50 (T47D): 2350 nM
CC50 (T47D; [18]): > 50 µM
Activity (K562 [14]): 15%
Activity (K562 [15]): 49.2%
Activity (K562 [16]): 35.8%
Activity (K562 [17]): 8.57%

COc1cc2c(c(OC)c1OC)-c1ccc(OC)c(=O)cc1[C@@H](NC(C)=O)CC2 [COLCHICINE]
Activity (K562 [14]): 8.8%
Activity (K562 [15]): 16.6%
Activity (K562 [16]): 74.6%
Activity (K562 [17]): 14.59%
